Experimental data: paper PMC11676667, “Pharmacokinetics of Oral Cannabinoid Δ8-Tetrahydrocannabivarin and Its Main Metabolites in Healthy Participants” (Pharmaceuticals, 2024)
Read-outs that look alike come from different tables or passages of the source.

Test: Plasma pharmacokinetics after single oral dose of Δ8-THCV in MCT oil (LC-MS/MS, non-compartmental analysis)
Assay type: in vivo, human
Parameters: Clast (last quantifiable concentration): unit not given here
Conditions: for Clast (last quantifiable concentration) / tlast (time to last quantifiable concentration) / concentration at 0.5 h / concentration at 1 h / concentration at 2 h / concentration at 4 h / concentration at 6 h / concentration at 8 h / AUC(0-t) / Cmax / MRT / Tmax: plasma; for plasma concentration: Predose; for concentration at 0.5 h / concentration at 1 h / concentration at 2 h / concentration at 4 h / concentration at 6 h / concentration at 8 h / AUC(0-t) / Cmax / MRT / Tmax: human; for concentration at 0.5 h / concentration at 1 h / concentration at 2 h / concentration at 4 h / concentration at 6 h / concentration at 8 h: oral; for AUC(0-t) / Cmax / MRT / Tmax: po; for MRT: read-out: MRT (mean residence time); for Tmax: read-out: tmax
Description: The study was a two-phase, dose-ranging, placebo-controlled trial in 21 healthy participants to assess the safety, tolerability, PK, and PD of an oral formulation of Δ8-THCV. A detailed description of the study was published elsewhere. The study product was a medium-chain triglyceride (MCT) oil oral formulation of Δ8-THCV at a concentration of 50 mg/mL. […] MCT oil was used as placebo.
Twenty-one participants were enrolled in the clinical study and plasma samples from 15 participants were sent to our laboratory for pharmacokinetic evaluation. Of these, 3 participants were enrolled in Phase 1, an unblinded, placebo-controlled, single ascending dose design and 12 were enrolled in Phase 2, a double-blind, randomized, placebo-controlled, within-participant crossover design. At each study session, participants received one of the following oral doses: placebo, 12.5 mg, 25 mg, 50 mg, 100 mg, and 200 mg of the aforementioned Δ8-THCV formulation in MCT. Study visits were separated by a washout period of a minimum of one week and maximum of 28 days. Participants entered the research facility the night before the session and received the study product in the morning after a standardized high-fat, high-calorie breakfast. PK blood samples included in this analysis were collected prior to dosing and 0.5, 1, 2, 4, 6, and 8 h after dose. Immediately following collection into K2EDTA tubes, blood samples were placed on wet ice, centrifuged, and plasma was immediately frozen at −80 °C until shipment to the bioanalytical laboratory (iC42 Clinical Research and Development, University of Colorado, Aurora, CO, USA) on dry ice.
Plasma samples were analyzed using a validated high-performance liquid chromatography–tandem mass spectrometry (LC-MS/MS) assay. The assay included Δ8-THCV and its main metabolites 11-OH-Δ8-THCV and Δ8-THCV-COOH, Δ9-THCV and its main metabolite Δ9-THCV-COOH, and Δ9-THC and Δ8-THC as well as their main metabolites (Figure 3). The complete list of analyzed compounds and a summary of the key performance parameters of the assay are presented in Appendix A and Table A1 and Table A2. […] For the PK analysis, concentrations below the lower limit of quantification were set to 0 ng/mL. PK parameters were calculated using non-compartmental analysis (Phoenix WinNonlin version 8.4., Certara, Princeton, NJ, USA). Statistical analysis was carried out using GraphPad Prism (version 10, Boston, MA, USA).

[1] = 100 mg single oral Δ8-THCV in MCT oil, Mean (±SD)
[2] = 100 mg single oral Δ8-THCV in MCT oil, Median (Range)
[3] = 200 mg single oral Δ8-THCV in MCT oil, Mean (±SD)
[4] = 200 mg single oral Δ8-THCV in MCT oil, Median (Range)
[5] = 12.5 mg, 12.5 mg Δ8-THCV dose, Mean (SD, %CV)
[6] = 12.5 mg, 12.5 mg Δ8-THCV dose, Median (IQ Range)
[7] = 25 mg, 25 mg Δ8-THCV dose, Mean (SD, %CV)
[8] = 25 mg, 25 mg Δ8-THCV dose, Median (IQ Range)
[9] = 50 mg, 50 mg Δ8-THCV dose, Mean (SD, %CV)
[10] = 50 mg, 50 mg Δ8-THCV dose, Median (IQ Range)
[11] = 100 mg, 100 mg Δ8-THCV dose, Mean (SD, %CV)
[12] = 100 mg, 100 mg Δ8-THCV dose, Median (IQ Range)
[13] = 200 mg, 200 mg Δ8-THCV dose, Mean (SD, %CV)
[14] = 200 mg, 200 mg Δ8-THCV dose, Median (IQ Range)
[15] = 100 mg, 100 mg single oral Δ8-THCV in MCT oil, Mean (±SD)
[16] = 100 mg, 100 mg single oral Δ8-THCV in MCT oil, Median (Range)
[17] = 200 mg, 200 mg single oral Δ8-THCV in MCT oil, Mean (±SD)
[18] = 200 mg, 200 mg single oral Δ8-THCV in MCT oil, Median (Range)

CCCCCc1cc(O)c2c(c1)OC(C)(C)[C@@H]1CC=C(C(=O)O)CC21 (single isomer, unassigned; (+)) [Δ8-THC-COOH, (+)-11-nor-Δ8-THC-9-carboxylic acid]
Clast (last quantifiable concentration) [1]: 1.3 (±0.2) | tlast (time to last quantifiable concentration) [1]: 5.8 (±1.3) | Clast (last quantifiable concentration) [2]: 1.3 (1–1.7) | tlast (time to last quantifiable concentration) [2]: 6 (4–8) | Clast (last quantifiable concentration) [3]: 1.9 (±0.6) | tlast (time to last quantifiable concentration) [3]: 7.5 (±1.2) | Clast (last quantifiable concentration) [4]: 1.8 (1.1–2.8) | tlast (time to last quantifiable concentration) [4]: 8 (4–8) | plasma concentration (12.5 mg Δ8-THCV dose, Mean (SD, %CV)): 0 (±0, --) ng/mL | plasma concentration (12.5 mg Δ8-THCV dose, Median (IQ Range)): 0 (0–0) ng/mL | plasma concentration (25 mg Δ8-THCV dose, Mean (SD, %CV)): 0 (±0, --) ng/mL | plasma concentration (25 mg Δ8-THCV dose, Median (IQ Range)): 0 (0–0) ng/mL | plasma concentration (50 mg Δ8-THCV dose, Mean (SD, %CV)): 0 (±0, --) ng/mL | plasma concentration (50 mg Δ8-THCV dose, Median (IQ Range)): 0 (0–0) ng/mL | plasma concentration (100 mg Δ8-THCV dose, Mean (SD, %CV)): 0 (±0, --) ng/mL | plasma concentration (100 mg Δ8-THCV dose, Median (IQ Range)): 0 (0–0) ng/mL | plasma concentration (200 mg Δ8-THCV dose, Mean (SD, %CV)): 0 (±0, --) ng/mL | plasma concentration (200 mg Δ8-THCV dose, Median (IQ Range)): 0 (0–0) ng/mL | concentration at 0.5 h [5]: 0 ng/mL | concentration at 0.5 h [6]: 0 ng/mL | concentration at 1 h [5]: 0 ng/mL | concentration at 1 h [6]: 0 ng/mL | concentration at 2 h [5]: 0 ng/mL | concentration at 2 h [6]: 0 ng/mL | concentration at 4 h [5]: 0 ng/mL | concentration at 4 h [6]: 0 ng/mL | concentration at 6 h [5]: 0 ng/mL | concentration at 6 h [6]: 0 ng/mL | concentration at 8 h [5]: 0 ng/mL | concentration at 8 h [6]: 0 ng/mL | concentration at 0.5 h [7]: 0 ng/mL | concentration at 0.5 h [8]: 0 ng/mL | concentration at 1 h [7]: 0 ng/mL | concentration at 1 h [8]: 0 ng/mL | concentration at 2 h [7]: 0 ng/mL | concentration at 2 h [8]: 0 ng/mL | concentration at 4 h [7]: 0 ng/mL | concentration at 4 h [8]: 0 ng/mL | concentration at 6 h [7]: 0 ng/mL | concentration at 6 h [8]: 0 ng/mL | concentration at 8 h [7]: 0 ng/mL | concentration at 8 h [8]: 0 ng/mL | concentration at 0.5 h [9]: 0 ng/mL | concentration at 0.5 h [10]: 0 ng/mL | concentration at 1 h [9]: 0 ng/mL | concentration at 1 h [10]: 0 ng/mL | concentration at 2 h [9]: 0 ng/mL | concentration at 2 h [10]: 0 ng/mL | concentration at 4 h [9]: 0 ng/mL | concentration at 4 h [10]: 0 ng/mL | concentration at 6 h [9]: 0 ng/mL | concentration at 6 h [10]: 0 ng/mL | concentration at 8 h [9]: 0 ng/mL | concentration at 8 h [10]: 0 ng/mL | concentration at 0.5 h [11]: 0 ng/mL | concentration at 0.5 h [12]: 0 ng/mL | concentration at 1 h [11]: 0 ng/mL | concentration at 1 h [12]: 0 ng/mL | concentration at 2 h [11]: 0 ng/mL | concentration at 2 h [12]: 0 ng/mL | concentration at 4 h [11]: 0.4 ng/mL | concentration at 4 h [12]: 0 ng/mL | concentration at 6 h [11]: 0.6 ng/mL | concentration at 6 h [12]: 0 ng/mL | concentration at 8 h [11]: 0.1 ng/mL | concentration at 8 h [12]: 0 ng/mL | concentration at 0.5 h [13]: 0 ng/mL | concentration at 0.5 h [14]: 0 ng/mL | concentration at 1 h [13]: 0 ng/mL | concentration at 1 h [14]: 0 ng/mL | concentration at 2 h [13]: 0.4 ng/mL | concentration at 2 h [14]: 0 ng/mL | concentration at 4 h [13]: 1.3 ng/mL | concentration at 4 h [14]: 1.7 ng/mL | concentration at 6 h [13]: 1.8 ng/mL | concentration at 6 h [14]: 2 ng/mL | concentration at 8 h [13]: 1.6 ng/mL | concentration at 8 h [14]: 1.6 ng/mL | AUC(0-t) [15]: 2.4 ng·h/mL | Cmax [15]: 1.4 ng/mL | AUC(0-t) [16]: 1.6 ng·h/mL | Cmax [16]: 1.4 ng/mL | MRT [15]: 5.2 h | Tmax [15]: 5 h | MRT [16]: 5.3 h | Tmax [16]: 5 h | AUC(0-t) [17]: 8.1 ng·h/mL | Cmax [17]: 2.4 ng/mL | AUC(0-t) [18]: 9.6 ng·h/mL | Cmax [18]: 2.5 ng/mL | MRT [17]: 5.7 h | Tmax [17]: 6.1 h | MRT [18]: 5.8 h | Tmax [18]: 6 h | number of positive plasma samples (of 504 plasma samples from 15 participants after oral Δ8-THCV): 49 | concentration in representative plasma sample (one subject after oral Δ8-THCV in MCT oil, Figure A1): 1.4 ng/mL
